As a reminder, the IC50 is the midpoint of a concentration-inhibition curve.

Assay [1] has as its target T1, complement C5a receptor 1 (C5aR1) (Homo sapiens, UniProt P21730).
T1 construct: β-galactosidase fragment (PathHunter enzyme complementation); host or cells: CHO-K1 (PathHunter CHO-K1 C5aR1 β-arrestin cell line)
T1 sequence (P21730 1-350): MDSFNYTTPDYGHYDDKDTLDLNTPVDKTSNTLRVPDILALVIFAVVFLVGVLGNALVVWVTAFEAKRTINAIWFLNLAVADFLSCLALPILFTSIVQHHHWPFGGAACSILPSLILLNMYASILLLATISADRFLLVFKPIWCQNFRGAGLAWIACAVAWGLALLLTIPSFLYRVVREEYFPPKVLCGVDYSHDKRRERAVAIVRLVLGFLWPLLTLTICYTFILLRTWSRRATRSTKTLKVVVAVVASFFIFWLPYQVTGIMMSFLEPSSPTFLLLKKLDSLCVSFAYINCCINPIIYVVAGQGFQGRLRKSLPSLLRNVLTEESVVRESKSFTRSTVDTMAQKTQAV
In words: β-arrestin recruitment via C5aR1 activation in live CHO-K1 cells (PathHunter), agonist mode. In kind it is cell-based. In short, it runs like this:
(§1)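 Live CHO-K1 cells expressing β-galactosidase fragments fused to β-arrestin and C5aR1; recruitment is read by fragment complementation. In agonist mode compounds are tested alone; in antagonist mode they compete against recombinant hC5a at EC90. IC50 reported in binned ranges.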
For orientation: Activated receptors often draw arrestin, which recruitment assays turn into a signal.

Assay [2] concerns the target T1, complement C5a receptor 1 (C5aR1). Briefly: β-arrestin recruitment via C5aR1 activation in live CHO-K1 cells (PathHunter), antagonist mode. In kind it is cell-based. As to conditions: antagonist mode; recombinant hC5a (EC90) as competing natural agonist; live CHO-K1 cells; read-out: [Antagonist] B-arrestin2 recruitment: Average IC50; call rule not given here. Summed up: as §1

Read-outs that look alike come from different tables or passages of the source.

`COc1nccnc1Cn1c(=O)c([C@H]2CC[C@H](c3c(C)cccc3F)CC2)cc2ncc(C)nc21` [compound 173, 7-((1r,4r)-4-(2-Fluoro-6-methylphenyl)cyclohexyl)-5-((3-methoxypyrazin-2-yl)methyl)-3-methylpyrido[2,3-b]pyrazin-6(5H)-one]: the “[Agonist] B-arrestin2 recruitment: Average EC50 (nM)” value (from here on “[Agonist] B-arrestin2 recruitment”) in assay [1] (at 10 μM) was “Non-Active at 10 μM”. In assay [2], the half-inhibitory concentration (IC50) was < 500 nM.

Take `Cc1cnc2cc(N3CCN(c4c(C)cccc4F)CC3)c(=O)n(Cc3nccn(C(F)F)c3=O)c2n1` [161B, 5-((4-(Difluoromethyl)-3-oxo-3,4-dihydropyrazin-2-yl)methyl)-7-(4-(2-fluoro-6-methylphenyl)piperazin-1-yl)-3-methylpyrido[2,3-b]pyrazin-6(5H)-one]: in assay [1] (at 10 μM), the “[Agonist] B-arrestin2 recruitment” value is on record as “Non-Active at 10 μM”. Also, in assay [2], the IC50 lay within 5000 to 100000 nM.

With `Cc1cccc(F)c1N1CCC(c2cc3nccnc3n(Cc3nccn(C(F)F)c3=O)c2=O)CC1` [compound 159, 5-((4-(Difluoromethyl)-3-oxo-3,4-dihydropyrazin-2-yl)methyl)-7-(1-(2-fluoro-6-methylphenyl)piperidin-4-yl)pyrido[2,3-b]pyrazin-6(5H)-one], the “[Agonist] B-arrestin2 recruitment” value in assay [1] (at 10 μM) is recorded as “Non-Active at 10 μM”. Moreover, in assay [2], the concentration for half-maximal inhibition (IC50) lay within 5000 to 100000 nM.

Take `CCOc1ncc2cc(C3CCN(c4c(C)cccc4F)CC3)c(=O)n(Cc3nccnc3C(F)(F)F)c2n1` [compound 51, 2-Ethoxy-6-(1-(2-fluoro-6-methylphenyl)piperidin-4-yl)-8-((3-(trifluoromethyl)pyrazin-2-yl)methyl)pyrido[2,3-d]pyrimidin-7(8H)-one]: in assay [1], the “[Agonist] B-arrestin2 recruitment” value is on record as “Non-Active”. Further, in assay [2], the concentration for half-maximal inhibition (IC50) fell in the range of 500 to 5000 nM.

On to `Cc1cnc2cc(N3CCN(c4cc(F)cnc4C)CC3)c(=O)n(Cc3ncccc3C(F)(F)F)c2n1` [compound 69, 7-(4-(5-Fluoro-2-methylpyridin-3-yl)piperazin-1-yl)-3-methyl-5-((3-(trifluoromethyl)pyridin-2-yl)methyl)pyrido[2,3-b]pyrazin-6(5H)-one], for which the “[Agonist] B-arrestin2 recruitment” value in assay [1] is “Non-Active”. Besides, the IC50 in assay [2] is > 100000 nM.

`Cc1cnc2cc([C@H]3CC[C@H](c4c(C)cccc4F)CC3)c(=O)n(Cc3nccnc3C)c2n1` [137B, (R)-7-((1r,4r)-4-(2-Fluoro-6-methylphenyl)cyclohexyl)-3-methyl-5-((3-methylpyrazin-2-yl)methyl)pyrido[2,3-b]pyrazin-6(5H)-one]: in assay [1] (at 10 μM), the “[Agonist] B-arrestin2 recruitment” value is recorded as “Non-Active at 10 μM”. In assay [2], the 50% inhibitory concentration (IC50) is < 500 nM.

`Cc1cnc2cc(C3CCN(c4c(C)cccc4F)CC3)c(=O)n(Cc3ncccc3OC(F)F)c2n1` [compound 66, 5-((3-(Difluoromethoxy)pyridin-2-yl)methyl)-7-(1-(2-fluoro-6-methylphenyl)piperidin-4-yl)-3-methylpyrido[2,3-b]pyrazin-6(5H)-one]: the “[Agonist] B-arrestin2 recruitment” value in assay [1] was “Non-Active”. In addition, the IC50 in assay [2] was < 500 nM.

As to `Cc1cccc(F)c1N1CCC(c2cc3nccnc3n(Cc3ccccc3F)c2=O)CC1` [compound 35, 7-(1-(2-Fluoro-6-methylphenyl)piperidin-4-yl)-5-(2-fluorobenzyl)pyrido[2,3-b]pyrazin-6(5H)-one], the “[Agonist] B-arrestin2 recruitment” value in assay [1] is on record as “Non-Active”. In addition, in assay [2], the IC50 is < 500 nM.

With `Cc1cccc(F)c1N1CCC(c2cc3nccnc3n(Cc3ccc(C(F)(F)F)cn3)c2=O)CC1` [compound 15, 7-(1-(2-Fluoro-6-methylphenyl)piperidin-4-yl)-5-((5-(trifluoromethyl)pyridin-2-yl)methyl)pyrido[2,3-b]pyrazin-6(5H)-one], in assay [1], the “[Agonist] B-arrestin2 recruitment” value is reported as “Non-Active”. Further, in assay [2], the IC50 is > 100000 nM.

For `Cc1cccc(F)c1N1CCC(c2cc3nccnc3n(Cc3nccnc3OC(F)F)c2=O)CC1` [compound 155, 5-((3-(Difluoromethoxy)pyrazin-2-yl)methyl)-7-(1-(2-fluoro-6-methylphenyl)piperidin-4-yl)pyrido[2,3-b]pyrazin-6(5H)-one], the “[Agonist] B-arrestin2 recruitment” value in assay [1] (at 10 μM) is “Non-Active at 10 μM”. Further, the IC50 in assay [2] is < 500 nM.

For `O=c1c(C2CCN(c3cnccc3Cl)CC2)cc2nccnc2n1Cc1ncccc1C(F)(F)F` [compound 71, 7-(1-(4-Chloropyridin-3-yl)piperidin-4-yl)-5-((3-(trifluoromethyl)pyridin-2-yl)methyl)-pyrido[2,3-b]pyrazin-6(5H)-one], the “[Agonist] B-arrestin2 recruitment” value in assay [1] is given as “Non-Active”. The IC50 in assay [2] is 500 to 5000 nM.

For `Cc1cnc2cc(N3CCN(c4c(C)cccc4F)CC3)c(=O)n(Cc3ncccc3C(F)(F)F)c2n1` [compound 67, 7-(4-(2-Fluoro-6-methylphenyl)piperazin-1-yl)-3-methyl-5-((3-(trifluoromethyl)pyridin-2-yl)methyl)pyrido[2,3-b]pyrazin-6(5H)-one], the “[Agonist] B-arrestin2 recruitment” value in assay [1] was “Non-Active”. Moreover, the IC50 in assay [2] was < 500 nM.

Regarding `Cc1cccc(F)c1N1CCN(c2cc3nccnc3n(Cc3ncccc3OC(F)(F)F)c2=O)CC1` [compound 123, 7-(4-(2-Fluoro-6-methylphenyl)piperazin-1-yl)-5-((3-(trifluoromethoxy)pyridin-2-yl)methyl)pyrido[2,3-b]pyrazin-6(5H)-one], in assay [1], the “[Agonist] B-arrestin2 recruitment” value is reported as “Non-Active”. The IC50 in assay [2] was < 500 nM.

For the compound `Cc1cnc2cc([C@@H]3CC[C@H](c4c(C)cccc4F)C3)c(=O)n(Cc3ncccc3OC(F)F)c2n1` [175B, 5-((3-(Difluoromethoxy)pyridin-2-yl)methyl)-7-((1R,3S)-3-(2-fluoro-6-methylphenyl)cyclopentyl)-3-methylpyrido[2,3-b]pyrazin-6(5H)-one], in assay [1] (at 10 μM), the “[Agonist] B-arrestin2 recruitment” value is recorded as “Non-Active at 10 μM”. The IC50 in assay [2] is < 500 nM.

On to `Cc1cnc2cc([C@H]3CC[C@@H](c4c(C)cccc4F)CC3)c(=O)n(Cc3nccnc3C(F)F)c2n1` [148A, 5-((3-(Difluoromethyl)pyrazin-2-yl)methyl)-7-((1s,4s)-4-(2-fluoro-6-methylphenyl)cyclohexyl)-3-methylpyrido[2,3-b]pyrazin-6(5H)-one], for which the “[Agonist] B-arrestin2 recruitment” value in assay [1] is listed as “Non-Active”. The 50% inhibitory concentration (IC50) in assay [2] lay in the range of 500 to 5000 nM.

Take `Cc1ccc2cc([C@H]3CC[C@H](c4ccccc4C(F)(F)F)CC3)c(=O)n(Cc3ncccc3OC(F)(F)F)c2n1` [compound 244, 7-Methyl-1-((3-(trifluoromethoxy)pyridin-2-yl)methyl)-3-((1r,4r)-4-(2-(trifluoromethyl)phenyl)cyclohexyl)-1,8-naphthyridin-2(1H)-one]: the “[Agonist] B-arrestin2 recruitment” value in assay [1] is recorded as “Non-Active”. Also, the IC50 in assay [2] was < 500 nM.

In the case of `Cc1ccc2cc([C@H]3CC[C@H](c4c(F)cccc4F)CC3)c(=O)n(Cc3ncccc3C3CC3)c2n1` [compound 245, 1-((3-Cyclopropylpyridin-2-yl)methyl)-3-((1r,4r)-4-(2,6-difluorophenyl)cyclohexyl)-7-methyl-1,8-naphthyridin-2(1H)-one], the “[Agonist] B-arrestin2 recruitment” value in assay [1] (at 10 μM) is recorded as “Non-Active at 10 μM”. Further, the concentration for half-maximal inhibition (IC50) in assay [2] was < 500 nM.

As for `Cc1cnc2c(C)c(C3CCN(c4c(C)cccc4F)CC3)c(=O)n(Cc3nccnc3C(F)(F)F)c2n1` [compound 73, 7-(1-(2-Fluoro-6-methylphenyl)piperidin-4-yl)-3,8-dimethyl-5-((3-(trifluoromethyl)pyrazin-2-yl)methyl)pyrido[2,3-b]pyrazin-6(5H)-one], in assay [1], the “[Agonist] B-arrestin2 recruitment” value is reported as “Non-Active”. Besides, the concentration for half-maximal inhibition (IC50) in assay [2] lay within 500 to 5000 nM.

Consider `Cc1ccc2cc([C@H]3CC[C@H](c4c(C)cccc4F)CC3)c(=O)n(Cc3nccnc3C3CC3)c2n1` [compound 257, 1-[(3-Cyclopropyl-2-pyrazinyl)methyl]-7-methyl-3-[(1r,4r)-4-(2-fluoro-6-tolyl)cyclohexyl]-1,8-diaza-2(1H)-naphthalenone], for which the “[Agonist] B-arrestin2 recruitment” value in assay [1] is reported as “Non-Active”. Moreover, the half-maximal inhibitory concentration (IC50) in assay [2] was < 500 nM.

Take `Cc1cnc2cc([C@H]3CC[C@H](c4c(C)cccc4F)CC3)c(=O)n(Cc3ncccc3OC3CC3)c2n1` [compound 238, 5-((3-Cyclopropoxypyridin-2-yl)methyl)-7-((1r,4r)-4-(2-fluoro-6-methylphenyl)cyclohexyl)-3-methylpyrido[2,3-b]pyrazin-6(5H)-one]: the “[Agonist] B-arrestin2 recruitment” value in assay [1] was “Non-Active”. In assay [2], the IC50 was < 500 nM.

As to `Cc1cnc2cc(C3CCN(c4ncccc4C(F)F)CC3)c(=O)n(Cc3ncccc3C(F)(F)F)c2n1` [compound 154, 7-(1-(3-(Difluoromethyl)pyridin-2-yl)piperidin-4-yl)-3-methyl-5-((3-(trifluoromethyl)pyridin-2-yl)methyl)pyrido[2,3-b]pyrazin-6(5H)-one], in assay [1] (at 10 μM), the “[Agonist] B-arrestin2 recruitment” value was “Non-Active at 10 μM”. The IC50 in assay [2] is < 500 nM.

As to `Cc1ccc2cc([C@H]3CC[C@H](c4c(F)cccc4F)CC3)c(=O)n(Cc3ncccc3C(F)(F)F)c2n1` [compound 223, 3-((1r,4r)-4-(2,6-Difluorophenyl)cyclohexyl)-7-methyl-1-((3-(trifluoromethyl)pyridin-2-yl)methyl)-1,8-naphthyridin-2(1H)-one], the “[Agonist] B-arrestin2 recruitment” value in assay [1] (at 10 μM) is “Non-Active at 10 μM”. In assay [2], the half-inhibitory concentration (IC50) was < 500 nM.

Source of the values: patent US20260317320A1, “C5AR1 ANTAGONISTS AND USES THEREOF” (Vanqua Bio, Inc., priority 2022, published 2026).
